What was measured:
[1] = target: Mitogen-activated protein kinase 14 (Homo sapiens, UniProt Q16539); assay: Displacement of fluorescent ATP competitive ligand from p38alpha
[2] = target: Serine/threonine-protein kinase PLK1 (Homo sapiens, UniProt P53350); assay: Inhibition of PLK1
[3] = target: Cyclin-dependent kinase 2 (Homo sapiens, UniProt P24941); assay: Inhibition of CDK2
[4] = target: T1, Serine/threonine-protein kinase Sgk1 (Homo sapiens, UniProt O00141); assay: Inhibition of SGK1
T1 sequence (O00141 whole entry): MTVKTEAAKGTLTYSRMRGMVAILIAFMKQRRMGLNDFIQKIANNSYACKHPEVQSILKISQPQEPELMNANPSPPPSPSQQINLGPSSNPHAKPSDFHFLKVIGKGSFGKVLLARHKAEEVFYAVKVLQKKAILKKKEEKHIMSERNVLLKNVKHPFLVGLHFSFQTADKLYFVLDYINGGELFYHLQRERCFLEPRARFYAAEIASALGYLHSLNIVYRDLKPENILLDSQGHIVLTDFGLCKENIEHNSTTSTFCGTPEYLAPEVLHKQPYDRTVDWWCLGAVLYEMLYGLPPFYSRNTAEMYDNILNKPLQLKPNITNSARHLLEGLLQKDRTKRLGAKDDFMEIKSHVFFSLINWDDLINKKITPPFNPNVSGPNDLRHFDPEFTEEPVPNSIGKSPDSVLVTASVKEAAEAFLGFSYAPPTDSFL

[5] = target: Dual specificity mitogen-activated protein kinase kinase 1 (Homo sapiens, UniProt Q02750); assay: Inhibition of MEK1 by cRaf/mek/Erk cascade assay
[6] = target: Mitogen-activated protein kinase 10 (Homo sapiens, UniProt P53779); assay: Inhibition of JNK3
[7] = target: Macrophage colony-stimulating factor 1 receptor (Homo sapiens, UniProt P07333); assay: Inhibition of cFMS
[8] = target: Vascular endothelial growth factor receptor 2 (Homo sapiens, UniProt P35968); assay: Inhibition of VEGFR2
Blood = assay: Inhibition of LPS-stimulated TNFalpha release in human whole blood; type: functional, tissue-based
PBMC = assay: Inhibition of LPS-stimulated TNFalpha release in human PBMCs; type: functional, cell-based
[9] = target: Tyrosine-protein kinase Lck (Homo sapiens, UniProt P06239)
[10] = target: Receptor tyrosine-protein kinase erbB-4 (Homo sapiens, UniProt Q15303); assay: Inhibition of ErbB4
[11] = target: Epidermal growth factor receptor (Homo sapiens, UniProt P00533)
Epidermal growth factor receptor, sequence (P00533 whole entry): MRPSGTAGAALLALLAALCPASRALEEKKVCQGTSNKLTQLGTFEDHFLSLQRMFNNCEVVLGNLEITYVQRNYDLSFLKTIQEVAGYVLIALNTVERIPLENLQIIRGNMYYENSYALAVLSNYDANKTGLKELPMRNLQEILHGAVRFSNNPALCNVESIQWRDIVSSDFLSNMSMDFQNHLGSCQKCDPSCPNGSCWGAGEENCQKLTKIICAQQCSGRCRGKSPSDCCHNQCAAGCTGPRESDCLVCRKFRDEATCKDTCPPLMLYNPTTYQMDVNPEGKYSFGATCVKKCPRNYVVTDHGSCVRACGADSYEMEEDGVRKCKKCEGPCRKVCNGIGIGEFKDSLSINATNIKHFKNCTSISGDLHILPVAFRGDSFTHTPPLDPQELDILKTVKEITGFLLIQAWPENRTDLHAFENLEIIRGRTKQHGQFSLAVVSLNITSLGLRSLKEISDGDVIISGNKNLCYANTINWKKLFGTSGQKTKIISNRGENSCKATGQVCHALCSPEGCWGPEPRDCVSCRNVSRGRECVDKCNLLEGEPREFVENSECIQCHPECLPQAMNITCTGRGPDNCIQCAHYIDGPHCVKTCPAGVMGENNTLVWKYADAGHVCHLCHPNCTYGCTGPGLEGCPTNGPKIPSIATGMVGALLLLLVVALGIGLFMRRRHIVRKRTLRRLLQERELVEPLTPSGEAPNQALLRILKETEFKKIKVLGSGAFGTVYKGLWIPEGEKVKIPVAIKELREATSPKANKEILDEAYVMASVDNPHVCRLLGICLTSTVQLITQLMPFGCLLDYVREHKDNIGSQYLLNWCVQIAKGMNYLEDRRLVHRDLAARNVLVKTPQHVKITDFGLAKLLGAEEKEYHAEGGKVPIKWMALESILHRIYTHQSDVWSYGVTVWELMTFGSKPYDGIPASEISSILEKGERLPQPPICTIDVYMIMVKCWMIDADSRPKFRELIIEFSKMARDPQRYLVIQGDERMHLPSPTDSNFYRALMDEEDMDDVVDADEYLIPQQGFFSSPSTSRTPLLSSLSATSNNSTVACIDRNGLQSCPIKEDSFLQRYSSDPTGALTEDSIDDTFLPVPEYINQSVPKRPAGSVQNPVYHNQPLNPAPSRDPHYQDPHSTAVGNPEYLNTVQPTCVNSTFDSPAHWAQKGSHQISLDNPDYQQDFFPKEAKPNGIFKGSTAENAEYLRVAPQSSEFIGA

Mitogen-activated protein kinase 14, sequence (Q16539 whole entry): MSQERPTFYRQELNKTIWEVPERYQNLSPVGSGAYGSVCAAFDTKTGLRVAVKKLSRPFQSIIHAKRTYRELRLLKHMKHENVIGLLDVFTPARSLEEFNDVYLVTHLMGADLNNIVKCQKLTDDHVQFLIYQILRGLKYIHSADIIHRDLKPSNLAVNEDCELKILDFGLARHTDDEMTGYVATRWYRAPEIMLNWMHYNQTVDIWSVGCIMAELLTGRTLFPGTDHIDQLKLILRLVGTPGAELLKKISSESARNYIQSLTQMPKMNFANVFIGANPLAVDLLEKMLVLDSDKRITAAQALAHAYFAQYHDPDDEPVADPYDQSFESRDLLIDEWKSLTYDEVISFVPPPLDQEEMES
Macrophage colony-stimulating factor 1 receptor, sequence (P07333 whole entry): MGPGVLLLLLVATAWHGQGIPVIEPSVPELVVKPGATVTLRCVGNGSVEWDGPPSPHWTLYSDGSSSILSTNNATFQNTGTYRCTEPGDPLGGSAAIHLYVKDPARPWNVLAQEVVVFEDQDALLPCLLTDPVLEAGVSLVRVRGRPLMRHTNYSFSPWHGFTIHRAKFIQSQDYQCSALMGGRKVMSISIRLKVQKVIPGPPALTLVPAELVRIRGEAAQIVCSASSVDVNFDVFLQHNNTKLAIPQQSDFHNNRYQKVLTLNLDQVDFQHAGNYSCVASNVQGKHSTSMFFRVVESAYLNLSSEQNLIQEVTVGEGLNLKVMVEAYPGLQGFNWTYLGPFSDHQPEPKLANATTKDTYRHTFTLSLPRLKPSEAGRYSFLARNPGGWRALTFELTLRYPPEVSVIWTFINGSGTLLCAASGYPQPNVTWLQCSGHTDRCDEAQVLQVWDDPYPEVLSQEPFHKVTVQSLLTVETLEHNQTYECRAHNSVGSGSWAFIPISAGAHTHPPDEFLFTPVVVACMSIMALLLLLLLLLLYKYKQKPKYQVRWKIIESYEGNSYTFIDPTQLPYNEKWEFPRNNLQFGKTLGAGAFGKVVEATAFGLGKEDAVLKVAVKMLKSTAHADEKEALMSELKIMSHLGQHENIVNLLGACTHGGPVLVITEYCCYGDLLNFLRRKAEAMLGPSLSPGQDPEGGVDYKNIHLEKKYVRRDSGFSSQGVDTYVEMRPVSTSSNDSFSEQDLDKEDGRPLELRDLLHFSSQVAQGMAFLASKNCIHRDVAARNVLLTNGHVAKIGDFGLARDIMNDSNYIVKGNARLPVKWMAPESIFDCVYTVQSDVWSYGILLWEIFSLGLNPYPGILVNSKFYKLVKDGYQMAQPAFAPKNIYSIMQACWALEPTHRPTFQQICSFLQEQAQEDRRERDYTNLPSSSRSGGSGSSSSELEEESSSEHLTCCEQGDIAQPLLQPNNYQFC
Receptor tyrosine-protein kinase erbB-4, sequence (Q15303 whole entry): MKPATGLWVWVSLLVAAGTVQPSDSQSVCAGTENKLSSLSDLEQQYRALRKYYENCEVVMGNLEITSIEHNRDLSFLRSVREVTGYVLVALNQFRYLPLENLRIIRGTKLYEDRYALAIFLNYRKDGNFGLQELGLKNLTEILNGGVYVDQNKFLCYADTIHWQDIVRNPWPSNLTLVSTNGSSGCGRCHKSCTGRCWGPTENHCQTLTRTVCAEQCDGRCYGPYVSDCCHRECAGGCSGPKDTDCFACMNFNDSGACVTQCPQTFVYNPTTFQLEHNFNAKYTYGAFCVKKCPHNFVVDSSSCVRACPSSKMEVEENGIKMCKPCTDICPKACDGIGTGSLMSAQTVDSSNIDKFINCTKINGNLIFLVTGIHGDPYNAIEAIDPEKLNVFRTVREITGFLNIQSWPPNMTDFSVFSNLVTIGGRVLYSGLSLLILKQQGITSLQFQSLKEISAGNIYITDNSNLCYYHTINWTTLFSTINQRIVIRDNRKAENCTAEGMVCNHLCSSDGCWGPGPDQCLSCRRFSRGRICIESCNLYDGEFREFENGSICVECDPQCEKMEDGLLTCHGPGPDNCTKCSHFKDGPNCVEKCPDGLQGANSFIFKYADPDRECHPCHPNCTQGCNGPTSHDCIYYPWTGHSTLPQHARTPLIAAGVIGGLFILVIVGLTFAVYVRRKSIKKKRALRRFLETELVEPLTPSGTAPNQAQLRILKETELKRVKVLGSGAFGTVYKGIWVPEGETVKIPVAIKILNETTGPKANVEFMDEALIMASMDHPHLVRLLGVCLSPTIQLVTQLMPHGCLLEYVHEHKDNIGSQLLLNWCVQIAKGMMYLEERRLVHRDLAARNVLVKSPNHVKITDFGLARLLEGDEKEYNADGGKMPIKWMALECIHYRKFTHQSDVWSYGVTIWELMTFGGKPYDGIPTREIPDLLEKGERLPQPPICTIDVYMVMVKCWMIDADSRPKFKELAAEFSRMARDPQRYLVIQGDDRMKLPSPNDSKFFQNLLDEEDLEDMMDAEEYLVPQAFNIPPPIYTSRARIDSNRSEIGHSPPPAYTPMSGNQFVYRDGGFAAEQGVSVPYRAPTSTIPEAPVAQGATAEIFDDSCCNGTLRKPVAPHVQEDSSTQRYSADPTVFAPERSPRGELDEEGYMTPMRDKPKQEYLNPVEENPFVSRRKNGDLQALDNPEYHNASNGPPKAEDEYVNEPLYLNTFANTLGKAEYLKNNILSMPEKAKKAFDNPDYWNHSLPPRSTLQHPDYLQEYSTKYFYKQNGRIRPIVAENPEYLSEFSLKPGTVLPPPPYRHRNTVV
Serine/threonine-protein kinase PLK1, sequence (P53350 whole entry): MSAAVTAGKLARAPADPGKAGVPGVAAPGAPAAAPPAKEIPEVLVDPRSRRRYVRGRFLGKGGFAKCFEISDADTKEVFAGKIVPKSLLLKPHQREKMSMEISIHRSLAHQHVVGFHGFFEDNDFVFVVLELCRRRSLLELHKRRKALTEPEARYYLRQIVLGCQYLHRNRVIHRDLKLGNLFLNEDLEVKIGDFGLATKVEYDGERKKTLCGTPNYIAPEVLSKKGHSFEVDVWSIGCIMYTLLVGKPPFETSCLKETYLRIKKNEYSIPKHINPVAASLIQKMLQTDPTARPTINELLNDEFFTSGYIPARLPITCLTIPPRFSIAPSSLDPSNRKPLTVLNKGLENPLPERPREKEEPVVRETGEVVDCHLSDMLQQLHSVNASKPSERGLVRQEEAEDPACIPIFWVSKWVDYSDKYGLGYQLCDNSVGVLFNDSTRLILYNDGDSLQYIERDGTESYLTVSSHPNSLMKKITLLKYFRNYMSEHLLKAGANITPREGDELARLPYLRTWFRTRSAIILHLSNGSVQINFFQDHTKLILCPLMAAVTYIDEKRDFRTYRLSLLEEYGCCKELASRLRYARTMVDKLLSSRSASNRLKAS
Tyrosine-protein kinase Lck, sequence (P06239 whole entry): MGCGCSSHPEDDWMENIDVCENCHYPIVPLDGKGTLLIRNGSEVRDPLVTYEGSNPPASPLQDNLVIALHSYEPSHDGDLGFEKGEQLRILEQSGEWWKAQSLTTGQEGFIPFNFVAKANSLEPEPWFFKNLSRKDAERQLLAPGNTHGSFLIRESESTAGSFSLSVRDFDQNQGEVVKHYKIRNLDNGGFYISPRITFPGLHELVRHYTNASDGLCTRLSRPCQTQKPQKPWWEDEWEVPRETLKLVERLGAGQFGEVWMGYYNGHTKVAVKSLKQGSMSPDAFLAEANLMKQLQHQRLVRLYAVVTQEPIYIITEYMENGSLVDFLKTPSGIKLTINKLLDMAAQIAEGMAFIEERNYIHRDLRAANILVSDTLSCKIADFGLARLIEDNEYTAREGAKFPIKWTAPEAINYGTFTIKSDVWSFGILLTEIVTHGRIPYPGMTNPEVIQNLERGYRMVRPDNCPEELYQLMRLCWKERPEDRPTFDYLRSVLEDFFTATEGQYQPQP

Structure (SMILES): CC(=O)Nc1cc(-c2ccc(-c3cc(NC(=O)c4ccnc(N5CCCC5)c4)ccc3C)cc2)[nH]n1
- Ki [1]: 0.014 µM

Structure (SMILES): Cc1ccc(C(=O)Nc2cccc(N3CCOCC3)c2)cc1-c1ccc2c(C3CCNCC3)noc2c1
- IC50 [2]: > 25 µM
- IC50 [3]: > 20 µM
- IC50 [4]: > 33 µM
- IC50 [5]: 0.04 µM
- IC50 [6]: > 16 µM
- IC50 [7]: > 20 µM
- IC50 [8]: > 20 µM

Structure (SMILES): Cc1ccc(NC(=O)c2ccnc(N3CCCC3)c2)cc1-c1ccc2c(C3CCNCC3)noc2c1
- IC50 (Blood): 5 µM
- IC50 [2]: > 25 µM
- IC50 [3]: > 20 µM
- Ki [1]: 0.0008 µM
- IC50 [4]: > 33 µM
- IC50 [5]: 0.03 µM
- IC50 (PBMC): 0.06 µM
- IC50 [6]: > 16 µM
- IC50 [7]: 7 µM
- IC50 [8]: > 20 µM
- IC50 [9]: 6 µM

Structure (SMILES): Cc1nnc(-c2ccc(-c3cc(NC(=O)c4ccnc(N5CCCC5)c4)ccc3C)c(C)c2)o1
- IC50 (Blood): 0.7 µM
- IC50 [2]: > 25 µM
- IC50 [3]: > 20 µM
- Ki [1]: 0.0017 µM
- IC50 [4]: > 33 µM
- IC50 [5]: 0.2 µM
- IC50 (PBMC): 0.1 µM
- IC50 [6]: > 16 µM
- IC50 [7]: > 20 µM
- IC50 [8]: > 20 µM
- IC50 [9]: 10 µM

Structure (SMILES): Cc1ccc(C(=O)Nc2cccc(N3CCOCC3)c2)cc1-c1ccc2onc(C)c2c1
- Ki [1]: 0.38 µM

Structure (SMILES): Cc1ccc(NC(=O)c2ccnc(N3CCCC3)c2)cc1-c1ccc2[nH]c(=O)ccc2c1
- Ki [1]: 0.049 µM

Structure (SMILES): Cc1ccc(C(=O)Nc2cccc(N3CCOCC3)c2)cc1-c1ccc2[nH]ncc2c1
- Ki [1]: 0.11 µM

Structure (SMILES): Cc1ccc(NC(=O)c2ccc(CN3CCN(C)CC3)cc2)cc1-c1ccc(-c2csc(N)n2)cc1
- IC50 [2]: > 25 µM
- IC50 [3]: > 20 µM
- Ki [1]: > 0.85 µM
- IC50 [4]: > 33 µM
- IC50 [10]: > 25 µM
- IC50 [6]: > 16 µM
- IC50 [7]: 0.09 µM
- IC50 [8]: > 20 µM
- IC50 [11]: > 25 µM
- IC50 [9]: 2 µM

Structure (SMILES): Cc1nc(-c2ccc(-c3cc(C(=O)NC4CC4)ccc3C)cc2)no1
- Ki [1]: 0.098 µM

Structure (SMILES): Cc1ccc(C(=O)Nc2cccc(N3CCOCC3)c2)cc1-c1ccc2nc(N)[nH]c(=O)c2c1
- Ki [1]: 0.0047 µM

Structure (SMILES): Cc1ccc(C(=O)NC2CC2)cc1-c1ccc2nc(N)[nH]c(=O)c2c1
- Ki [1]: 0.049 µM

Structure (SMILES): Cc1nc(-c2ccc(-c3cc(C(=O)Nc4cccc(N5CCOCC5)c4)ccc3C)cc2)no1
- Ki [1]: 0.017 µM

Structure (SMILES): Cc1ccc(C(=O)NC2CC2)cc1-c1ccc2cccnc2c1
- Ki [1]: 0.49 µM

Structure (SMILES): Cc1ccc(NC(=O)c2ccc(CN3CCN(C)CC3)cc2)cc1-c1ccc2cccnc2c1
- Ki [1]: > 2.5 µM

Structure (SMILES): Cc1ccc(C(=O)NC2CC2)cc1-c1ccc2c(=O)cc(-c3cccs3)oc2c1
- Ki [1]: 0.0067 µM

Structure (SMILES): Cc1ccc(C(=O)Nc2cccc(N3CCOCC3)c2)cc1-c1ccc2[nH]c(=O)ccc2c1
- Ki [1]: 0.29 µM

Structure (SMILES): Cc1nc(-c2ccc(-c3cc(NC(=O)c4ccc(CN5CCN(C)CC5)cc4)ccc3C)cc2)no1
- Ki [1]: > 0.85 µM

Structure (SMILES): CCCCn1c(=O)[nH]c2cc(-c3cc(NC(=O)c4ccnc(N5CCCC5)c4)ccc3C)ccc2c1=O
- Ki [1]: 0.011 µM

Structure (SMILES): Cc1nnc(-c2ccc(-c3cc(NC(=O)c4ccc(CN5CCN(C)CC5)cc4)ccc3C)c(C)c2)o1
- IC50 [2]: > 25 µM
- IC50 [3]: > 20 µM
- Ki [1]: 1.4 µM
- IC50 [4]: > 33 µM
- IC50 [10]: > 25 µM
- IC50 [6]: > 16 µM
- IC50 [7]: 0.1 µM
- IC50 [8]: > 20 µM
- IC50 [11]: > 25 µM
- IC50 [9]: 3 µM

Structure (SMILES): Cc1ccc(NC(=O)c2ccnc(N3CCCC3)c2)cc1-c1ccc2c(N)noc2c1
- Ki [1]: 0.012 µM

Structure (SMILES): Cc1ccc(NC(=O)c2ccc(CN3CCN(C)CC3)cc2)cc1-c1ccc2c(N)noc2c1
- IC50 [2]: > 25 µM
- IC50 [3]: > 20 µM
- Ki [1]: > 0.85 µM
- IC50 [4]: > 33 µM
- IC50 [10]: > 25 µM
- IC50 [6]: > 16 µM
- IC50 [7]: 0.09 µM
- IC50 [8]: > 20 µM
- IC50 [11]: > 25 µM
- IC50 [9]: 1 µM

Structure (SMILES): Cc1ccc(C(=O)Nc2cccc(N3CCOCC3)c2)cc1-c1ccc2ccncc2c1
- Ki [1]: 0.0045 µM

Structure (SMILES): Cc1ccc(C(=O)NC2CC2)cc1-c1ccc2c(C3CCNCC3)noc2c1
- IC50 (Blood): 3 µM
- IC50 [2]: > 25 µM
- IC50 [3]: > 20 µM
- Ki [1]: 0.004 µM
- IC50 [4]: > 33 µM
- IC50 [10]: > 25 µM
- IC50 [5]: > 50 µM
- IC50 (PBMC): 0.2 µM
- IC50 [7]: > 20 µM
- IC50 [8]: > 20 µM
- IC50 [11]: > 25 µM

Structure (SMILES): CCCCn1c(=O)[nH]c2cc(-c3cc(C(=O)NC4CC4)ccc3C)ccc2c1=O
- Ki [1]: 0.018 µM
